Tested on: HCT116
Assay: In vitro cytotoxicity measured by the cell colony formation assay
Assay type: cell-based
Details: HCT116 cells, 72 h drug incubation, colonies counted after 7 days; ID50 = drug concentration producing 50% inhibition of colony formation; read-out: IN VITRO ID 50 (nm) HCT116

CC(=O)O[C@@]12CO[C@@H]1C[C@H](O)[C@@]1(C)C(=O)[C@H](OC(=O)C(C)C)C3=C(C)[C@@H](OC(=O)[C@H](O)[C@@H](NC(=O)OC(C)(C)C)c4ccoc4)C[C@@](O)([C@@H](OC(=O)c4ccccc4)C12)C3(C)C (stereo partly drawn) [Compound 2273] and CC(=O)O[C@@]12CO[C@@H]1C[C@H](O)[C@@]1(C)C(=O)[C@H](OC(=O)C(C)C)C3=C(C)[C@@H](OC(=O)[C@H](O)[C@@H](NC(=O)OC(C)(C)C)c4ccncc4)C[C@@](O)([C@@H](OC(=O)c4ccccc4)C12)C3(C)C (stereo partly drawn) [Compound 2255] cannot be ordered by IC50: under 1 nM for the first, under 1 nM for the second.

CCCC(=O)O[C@H]1C(=O)[C@@]2(C)C([C@H](OC(=O)c3ccccc3)[C@]3(O)C[C@H](OC(=O)[C@H](O)[C@@H](NC(=O)OCC(C)C)c4ccco4)C(C)=C1C3(C)C)[C@]1(OC(C)=O)CO[C@@H]1C[C@@H]2O (stereo partly drawn) [Compound 3957] and CCCC(=O)O[C@H]1C(=O)[C@@]2(C)C([C@H](OC(=O)c3ccccc3)[C@]3(O)C[C@H](OC(=O)[C@H](O)[C@@H](NC(=O)OCC(C)C)c4ccoc4)C(C)=C1C3(C)C)[C@]1(OC(C)=O)CO[C@@H]1C[C@@H]2O (stereo partly drawn) [Compound 4704] cannot be ordered by IC50: under 10 nM for the first, under 10 nM for the second.

CCCC(=O)O[C@H]1C(=O)[C@@]2(C)C([C@H](OC(=O)c3ccccc3)[C@]3(O)C[C@H](OC(=O)[C@H](O)[C@@H](NC(=O)OC(C)(C)C)c4ccccn4)C(C)=C1C3(C)C)[C@]1(OC(C)=O)CO[C@@H]1C[C@@H]2O (stereo partly drawn) [Compound 0951] and CC(=O)OC12COC1CC(O)C1(C)C(=O)C(OC(=O)C(C)C)C3=C(C)C(OC(=O)C(O)C(NC(=O)OC(C)(C)C)c4ccccn4)CC(O)(C(OC(=O)c4ccccc4)C21)C3(C)C (stereo not drawn) [Compound 2238] cannot be ordered by IC50: under 1 nM for the first, under 1 nM for the second.

CC(=O)O[C@@]12CO[C@@H]1C[C@H](O)[C@@]1(C)C(=O)[C@H](OC(=O)C3CC3)C3=C(C)[C@@H](OC(=O)[C@H](O)[C@@H](NC(=O)OC(C)C)c4cccs4)C[C@@](O)([C@@H](OC(=O)c4ccccc4)C12)C3(C)C (stereo partly drawn) [Compound 3071] and CC(=O)O[C@@]12CO[C@@H]1C[C@H](O)[C@@]1(C)C(=O)[C@H](OC(=O)C3CC3)C3=C(C)[C@@H](OC(=O)[C@H](O)[C@@H](NC(=O)OCC(C)C)c4cccs4)C[C@@](O)([C@@H](OC(=O)c4ccccc4)C12)C3(C)C (stereo partly drawn) [Compound 3129] cannot be ordered by IC50: under 1 nM for the first, under 10 nM for the second.

CC(=O)O[C@@]12CO[C@@H]1C[C@H](O)[C@@]1(C)C(=O)[C@H](OC(=O)C3CC3)C3=C(C)[C@@H](OC(=O)[C@H](O)[C@@H](NC(=O)OCC(C)C)c4ccco4)C[C@@](O)([C@@H](OC(=O)c4ccccc4)C12)C3(C)C (stereo partly drawn) [Compound 3102] and CC(=O)O[C@@]12CO[C@@H]1C[C@H](O)[C@@]1(C)C(=O)[C@H](OC(=O)C3CC3)C3=C(C)[C@@H](OC(=O)[C@H](O)[C@@H](NC(=O)OCC(C)C)C4CC4)C[C@@](O)([C@@H](OC(=O)c4ccccc4)C12)C3(C)C (stereo partly drawn) [Compound 5232] cannot be ordered by IC50: under 1 nM for the first, under 10 nM for the second.

CC(=O)O[C@@]12CO[C@@H]1C[C@H](O)[C@@]1(C)C(=O)[C@H](OC(=O)C3CC3)C3=C(C)[C@@H](OC(=O)[C@H](O)[C@@H](NC(=O)c4ccccc4)c4ccccn4)C[C@@](O)([C@@H](OC(=O)c4ccccc4)C12)C3(C)C (stereo partly drawn) [Compound 2844] and CC(=O)O[C@@]12CO[C@@H]1C[C@H](O)[C@@]1(C)C(=O)[C@H](OC(=O)C3CC3)C3=C(C)[C@@H](OC(=O)[C@H](O)[C@@H](NC(=O)c4ccccc4)c4ccsc4)C[C@@](O)([C@@H](OC(=O)c4ccccc4)C12)C3(C)C (stereo partly drawn) [Compound 2838] cannot be ordered by IC50: under 10 nM for the first, under 1 nM for the second.

CCCC(=O)O[C@H]1C(=O)[C@@]2(C)C([C@H](OC(=O)c3ccccc3)[C@]3(O)C[C@H](OC(=O)[C@H](O)[C@@H](NC(=O)c4ccccc4)c4ccco4)C(C)=C1C3(C)C)[C@]1(OC(C)=O)CO[C@@H]1C[C@@H]2O (stereo partly drawn) [Compound 3204] and CC(=O)O[C@@]12CO[C@@H]1C[C@H](O)[C@@]1(C)C(=O)[C@H](OC(=O)C3CC3)C3=C(C)[C@@H](OC(=O)[C@H](O)[C@@H](NC(=O)c4ccccc4)c4ccoc4)C[C@@](O)([C@@H](OC(=O)c4ccccc4)C12)C3(C)C (stereo partly drawn) [Compound 2826] cannot be ordered by IC50: under 1 nM for the first, under 1 nM for the second.

CC(=O)OC12COC1CC(O)C1(C)C(=O)C(OC(=O)c3cccs3)C3=C(C)C(OC(=O)C(O)C(NC(=O)OC(C)(C)C)C4CCC4)CC(O)(C(OC(=O)c4ccccc4)C21)C3(C)C (stereo not drawn) [Compound 1970] and CCC(=O)O[C@H]1C(=O)[C@@]2(C)C([C@H](OC(=O)c3ccccc3)[C@]3(O)C[C@H](OC(=O)[C@H](O)[C@@H](NC(=O)OC(C)(C)C)C4CCC4)C(C)=C1C3(C)C)[C@]1(OC(C)=O)CO[C@@H]1C[C@@H]2O (stereo partly drawn) [Compound 0596] cannot be ordered by IC50: under 10 nM for the first, under 10 nM for the second.

CC(=O)O[C@@]12CO[C@@H]1C[C@H](O)[C@@]1(C)C(=O)[C@H](OC(=O)C(C)C)C3=C(C)[C@@H](OC(=O)[C@H](O)[C@@H](NC(=O)OC(C)(C)C)C4CCC4)C[C@@](O)([C@@H](OC(=O)c4ccccc4)C12)C3(C)C (stereo partly drawn) [Compound 2319] and CC(=O)O[C@@]12CO[C@@H]1C[C@H](O)[C@@]1(C)C(=O)[C@H](OC(=O)C3CC3)C3=C(C)[C@@H](OC(=O)[C@H](O)[C@@H](NC(=O)OC(C)(C)C)C4CC4)C[C@@](O)([C@@H](OC(=O)c4ccccc4)C12)C3(C)C (stereo partly drawn) [Compound 0860] cannot be ordered by IC50: under 10 nM for the first, under 1 nM for the second.

C/C=C/C(=O)N[C@@H](c1ccoc1)[C@@H](O)C(=O)O[C@H]1C[C@@]2(O)[C@@H](OC(=O)c3ccccc3)C3[C@](C)(C(=O)[C@H](OC(=O)CC)C(=C1C)C2(C)C)[C@@H](O)C[C@H]1OC[C@@]31OC(C)=O (stereo partly drawn) [Compound 4888] and C/C=C/C(=O)N[C@@H](c1ccsc1)[C@@H](O)C(=O)O[C@H]1C[C@@]2(O)[C@@H](OC(=O)c3ccccc3)C3[C@](C)(C(=O)[C@H](OC(=O)C4CC4)C(=C1C)C2(C)C)[C@@H](O)C[C@H]1OC[C@@]31OC(C)=O (stereo partly drawn) [Compound 5040] cannot be ordered by IC50: under 1 nM for the first, under 1 nM for the second.

CC(=O)O[C@@]12CO[C@@H]1C[C@H](O)[C@@]1(C)C(=O)[C@H](OC(=O)C3CC3)C3=C(C)[C@@H](OC(=O)[C@H](O)[C@@H](NC(=O)c4cccs4)c4cccs4)C[C@@](O)([C@@H](OC(=O)c4ccccc4)C12)C3(C)C (stereo partly drawn) [Compound 3453] and CC(=O)O[C@@]12CO[C@@H]1C[C@H](O)[C@@]1(C)C(=O)[C@H](OC(=O)C3CC3)C3=C(C)[C@@H](OC(=O)[C@H](O)[C@@H](NC(=O)C=C(C)C)c4cccs4)C[C@@](O)([C@@H](OC(=O)c4ccccc4)C12)C3(C)C (stereo partly drawn) [Compound 4329] cannot be ordered by IC50: under 1 nM for the first, under 1 nM for the second.

CCCC(=O)O[C@H]1C(=O)[C@@]2(C)C([C@H](OC(=O)c3ccccc3)[C@]3(O)C[C@H](OC(=O)[C@H](O)[C@@H](NC(=O)C=C(C)C)c4cccs4)C(C)=C1C3(C)C)[C@]1(OC(C)=O)CO[C@@H]1C[C@@H]2O (stereo partly drawn) [Compound 4344] and CCCC(=O)N[C@@H](c1cccs1)[C@@H](O)C(=O)O[C@H]1C[C@@]2(O)[C@@H](OC(=O)c3ccccc3)C3[C@](C)(C(=O)[C@H](OC(=O)CCC)C(=C1C)C2(C)C)[C@@H](O)C[C@H]1OC[C@@]31OC(C)=O (stereo partly drawn) [Compound 3148] cannot be ordered by IC50: under 1 nM for the first, under 1 nM for the second.

CC(=O)O[C@@]12CO[C@@H]1C[C@H](O)[C@@]1(C)C(=O)[C@H](OC(=O)C3CC3)C3=C(C)[C@@H](OC(=O)[C@H](O)[C@@H](NC(=O)c4ccccc4)c4ccc([N+](=O)[O-])cc4)C[C@@](O)([C@@H](OC(=O)c4ccccc4)C12)C3(C)C (stereo partly drawn) [Compound 2869] and CC(=O)OC12COC1CC(O)C1(C)C(=O)C(OC(=O)c3ccco3)C3=C(C)C(OC(=O)C(O)C(NC(=O)OC(C)(C)C)c4ccc([N+](=O)[O-])cc4)CC(O)(C(OC(=O)c4ccccc4)C21)C3(C)C (stereo not drawn) [Compound 2202] cannot be ordered by IC50: under 10 nM for the first, under 1 nM for the second.

CCC(=O)O[C@H]1C(=O)[C@@]2(C)C([C@H](OC(=O)c3ccccc3)[C@]3(O)C[C@H](OC(=O)[C@H](O)[C@@H](NC(=O)OC(C)(C)CC)c4ccco4)C(C)=C1C3(C)C)[C@]1(OC(C)=O)CO[C@@H]1C[C@@H]2O (stereo partly drawn) [Compound 6522] and CCC(=O)O[C@H]1C(=O)[C@@]2(C)C([C@H](OC(=O)c3ccccc3)[C@]3(O)C[C@H](OC(=O)[C@H](O)[C@@H](NC(=O)OC(C)(C)C)c4ccc([N+](=O)[O-])cc4)C(C)=C1C3(C)C)[C@]1(OC(C)=O)CO[C@@H]1C[C@@H]2O (stereo partly drawn) [Compound 0602] cannot be ordered by IC50: under 1 nM for the first, under 1 nM for the second.

CCCC(=O)O[C@H]1C(=O)[C@@]2(C)C([C@H](OC(=O)c3ccccc3)[C@]3(O)C[C@H](OC(=O)[C@H](O)[C@@H](NC(=O)OC(C)(C)C)c4cccnc4)C(C)=C1C3(C)C)[C@]1(OC(C)=O)CO[C@@H]1C[C@@H]2O (stereo partly drawn) [Compound 0966] and CCCC(=O)OC1C(=O)C2(C)C(O)CC3OCC3(OC(C)=O)C2C(OC(=O)c2ccccc2)C2(O)CC(OC(=O)C(O)C(NC(=O)OC(C)(C)C)C3CC3)C(C)=C1C2(C)C (stereo not drawn) [Compound 1020] cannot be ordered by IC50: under 10 nM for the first, under 1 nM for the second.

CC(=O)O[C@@]12CO[C@@H]1C[C@H](O)[C@@]1(C)C(=O)[C@H](OC(=O)C3CC3)C3=C(C)[C@@H](OC(=O)[C@H](O)[C@H](C=C(C)C)NC(=O)OC(C)(C)C)C[C@@](O)([C@@H](OC(=O)c4ccccc4)C12)C3(C)C (stereo partly drawn) [Compound 0838] and CCC(=O)O[C@H]1C(=O)[C@@]2(C)C([C@H](OC(=O)c3ccccc3)[C@]3(O)C[C@H](OC(=O)[C@H](O)[C@H](C=C(C)C)NC(=O)OC(C)(C)C)C(C)=C1C3(C)C)[C@]1(OC(C)=O)CO[C@@H]1C[C@@H]2O (stereo partly drawn) [Compound 0499] cannot be ordered by IC50: under 1 nM for the first, under 1 nM for the second.

CCCC(=O)O[C@H]1C(=O)[C@@]2(C)C([C@H](OC(=O)c3ccccc3)[C@]3(O)C[C@H](OC(=O)[C@H](O)[C@H](C=C(C)C)NC(=O)OC(C)(C)C)C(C)=C1C3(C)C)[C@]1(OC(C)=O)CO[C@@H]1C[C@@H]2O (stereo partly drawn) [Compound 0947] and CC(=O)O[C@@]12CO[C@@H]1C[C@H](O)[C@@]1(C)C(=O)[C@H](OC(=O)C3CC3)C3=C(C)[C@@H](OC(=O)[C@H](O)[C@@H](NC(=O)OC(C)(C)C)c4ccccn4)C[C@@](O)([C@@H](OC(=O)c4ccccc4)C12)C3(C)C (stereo partly drawn) [Compound 2802] cannot be ordered by IC50: under 1 nM for the first, under 1 nM for the second.

CC(=O)OC12COC1CC(O)C1(C)C(=O)C(OC(=O)c3ccco3)C3=C(C)C(OC(=O)C(O)C(NC(=O)OC(C)(C)C)c4ccsc4)CC(O)(C(OC(=O)c4ccccc4)C21)C3(C)C (stereo not drawn) [Compound 2173] and CC(=O)OC12COC1CC(O)C1(C)C(=O)C(OC(=O)c3cccs3)C3=C(C)C(OC(=O)C(O)C(NC(=O)OC(C)(C)C)c4ccccn4)CC(O)(C(OC(=O)c4ccccc4)C21)C3(C)C (stereo not drawn) [Compound 1883] cannot be ordered by IC50: under 1 nM for the first, under 10 nM for the second.

From patent publication US7524869B2, “Taxanes having a C10 ester substituent” (Florida State University Research Foundation, Inc., priority 2000, dated 2009)
